Source: the supplement of paper PMC10307832

What was measured:
Experiment in all cases: relative viability (nuclei count vs DMSO), 5 days (fraction); higher = more cells survive
[1] = compound: CC1=C(C(=NN1)C)CC2=C(C3=C(S2)N(C(=O)N(C3=O)C)CC(C)C)C(=O)N4C[C@@H](CO4)O + CS(=O)(=O)N1CCN(Cc2cc3nc(-c4cccc5[nH]ncc45)nc(N4CCOCC4)c3s2)CC1 [Pictilisib] (partner 1 µM)
Summary of the method: (§1)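 Relative viability equals treated-well nuclei counts divided by vehicle-well nuclei counts. Counts came from 4× images of lung cancer cell lines grown in 1536-well plates for 5 days after pin-tool dosing on the day after seeding. Dosing used one drug alone or a fixed anchor-drug dose plus five library-drug doses (not always all listed) in √10 steps, and values are medians of duplicate plates.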

IDH-C35 + OSI-027 = compound: Cc1ccccc1C(C(=O)NC1CCCCC1)N(C(=O)Cn1ccnc1C)c1cccc(F)c1 [IDH-C35] + COc1cccc2cc(-c3nc([C@H]4CC[C@H](C(=O)O)CC4)n4ncnc(N)c34)[nH]c12 [OSI-027] (partner 0.5 µM)
Summary of the method: as §1

IDH-C35 + AZD7762 = compound: Cc1ccccc1C(C(=O)NC1CCCCC1)N(C(=O)Cn1ccnc1C)c1cccc(F)c1 [IDH-C35] + NC(=O)Nc1cc(-c2cccc(F)c2)sc1C(=O)N[C@H]1CCCNC1 [AZD7762] (partner 0.2 µM)
Summary of the method: as §1

[2] = compound: CC1=C(C(=NN1)C)CC2=C(C3=C(S2)N(C(=O)N(C3=O)C)CC(C)C)C(=O)N4C[C@@H](CO4)O + CCNC(=O)c1noc(-c2cc(C(C)C)c(O)cc2O)c1-c1ccc(CN2CCOCC2)cc1 [Luminespib] (partner 0.01 µM)
Summary of the method: as §1

Cell Line | relative viability ([1]; first compound 0.0025 µM) | relative viability ([1]; first compound 0.007906 µM) | relative viability ([1]; first compound 0.025 µM) | relative viability ([1]; first compound 0.07906 µM) | relative viability ([1]; first compound 0.25 µM) | relative viability (IDH-C35 + OSI-027; first compound 0.08 µM) | relative viability (IDH-C35 + OSI-027; first compound 0.253 µM) | relative viability (IDH-C35 + OSI-027; first compound 0.8 µM) | relative viability (IDH-C35 + OSI-027; first compound 8 µM) | relative viability (IDH-C35 + AZD7762; first compound 0.08 µM) | relative viability (IDH-C35 + AZD7762; first compound 0.253 µM) | relative viability (IDH-C35 + AZD7762; first compound 0.8 µM) | relative viability (IDH-C35 + AZD7762; first compound 2.53 µM) | relative viability (IDH-C35 + AZD7762; first compound 8 µM) | relative viability (IDH-C35 + OSI-027; first compound 2.53 µM) | relative viability ([2]; first compound 0.0025 µM) | relative viability ([2]; first compound 0.007906 µM) | relative viability ([2]; first compound 0.025 µM) | relative viability ([2]; first compound 0.07906 µM) | relative viability ([2]; first compound 0.25 µM)
HCC-366 | 0.139 | 0.141 | 0.25 | 0.193 | 0.212 | 0.968 | 0.955 | 0.806 | 0.785 | 0.306 | 0.306 | 0.233 | 0.227 | 0.281 | – | – | – | – | – | –
HCC-827 | 1.24 | 1.04 | 0.896 | 0.863 | 1.06 | 0.78 | 0.662 | 0.694 | 0.771 | 0.218 | 0.266 | 0.221 | 0.206 | 0.228 | 0.71 | 0.748 | 0.445 | 0.56 | 0.513 | 0.482
HOP-62 | 0.719 | 0.876 | 0.903 | 0.787 | 0.825 | 0.895 | 0.801 | 0.76 | 0.78 | 0.624 | 0.553 | 0.739 | 0.519 | 0.532 | 0.79 | 0.892 | 1.01 | 0.809 | 0.824 | 0.986
IA-LM | 0.393 | 0.272 | 0.395 | 0.347 | 0.375 | – | – | – | – | – | – | – | – | – | – | – | – | – | – | –
LC-2-ad | 0.558 | 0.426 | 0.716 | 0.622 | 0.467 | 0.9 | 0.908 | 0.806 | 0.899 | 0.878 | 0.846 | 0.793 | 0.837 | 0.804 | – | 0.967 | 1.13 | 0.968 | 1.01 | 1.17
NCI-H520 | 0.32 | 0.259 | 0.304 | 0.269 | 0.288 | 0.257 | 0.243 | 0.268 | 0.265 | – | – | – | – | – | 0.276 | 0.211 | 0.24 | 0.217 | 0.199 | 0.185
NCI-H522 | – | – | – | – | – | 0.784 | 0.658 | 0.74 | 0.674 | 0.845 | 0.934 | 0.868 | 0.788 | 0.985 | 0.669 | 1.29 | 1.22 | 1.11 | 0.644 | 0.586
NCI-H661 | 0.473 | 0.41 | 0.378 | 0.379 | 0.385 | 0.756 | 0.68 | 0.725 | 0.746 | – | – | – | – | – | 0.695 | 0.877 | 0.938 | 0.824 | 0.913 | 0.885
NCI-H1299 | 0.772 | 0.958 | 0.931 | 0.944 | 0.945 | – | – | – | – | – | – | – | – | – | – | – | – | – | – | –
NCI-H1563 | 0.649 | 0.68 | 0.649 | 0.672 | 0.735 | 0.769 | 0.721 | 0.788 | 0.727 | – | – | – | – | – | 0.768 | 0.553 | 0.542 | 0.524 | 0.492 | 0.509
NCI-H1623 | – | – | – | – | – | 0.45 | 0.421 | 0.394 | 0.423 | – | – | – | – | – | 0.435 | 0.64 | 0.601 | 0.503 | 0.499 | 0.554
